Reference: US20260022142A1, “MACROCYCLIC IMMUNOMODULATORS” (Bristol-Myers Squibb Company, priority 2022, published 2026)
Numbered stars: 1 amine (or outer) side, 2 acyl side, 3 side chain; on linkers, the order of the positions; unused ones are H or OH. Bridge positions count the residues as written; N and C are the ends. Square brackets hold non-standard residues; d marks the D form. Peptide text beside a SMILES is read from it. * marks the point of attachment. ξ: configuration not given here. Phe(4-COOH) = N[C@@H](Cc1ccc(C(=O)O)cc1)C(=O)O; Bip = N[C@@H](Cc1ccc(-c2ccccc2)cc1)C(=O)O; NH(CH2)14COOH = O=C(O)CCCCCCCCCCCCCCN*; βAsp = O=C(O)[C@H](CC(=O)[*:2])N[*:1]; NH(CH2)12COOH = O=C(O)CCCCCCCCCCCCN*; hArg = N=C(N)NCCCC[C@H](N)C(=O)O; 4Pal = N[C@@H](Cc1ccncc1)C(=O)O; Cha = N[C@@H](CC1CCCCC1)C(=O)O; Ile(3ξ) = CCC(C)[C@H](N)C(=O)O; Thr(3ξ) = CC(O)[C@H](N)C(=O)O; 12Ado = NCCCCCCCCCCCC(=O)O; Carboxymethyl = O=C(O)C*; Orn = NCCC[C@H](N)C(=O)O; Aun = NCCCCCCCCCCC(=O)O; Dab = NCC[C@H](N)C(=O)O; AEEA = NCCOCCOCC(=O)O

Biological target: T1, PD-1/PD-L1 interaction (PE-labeled human PD-L1-Ig binding to Jurkat cell line over-expressing human PD-1) (Homo sapiens, UniProt Q15116)
T1 construct: expressed in transfected cells; host or cells: Jurkat
Assay: Jurkat-PD-1 Cell Binding High-Content Screening Assay (CBA)
Assay type: cell-based
Conditions: Jurkat cell line over-expressing human PD-1; PE-labeled PD-L1-Ig 20 nM final; read-out: Jurkat hPD1-PDL1 IC50
Outline: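 Jurkat cells over-expressing human PD-1 (8×10^3 per well, DMEM/10% FCS) preincubated with compound 2 h at 37° C, then PE-labeled human PD-L1-Ig (20 nM final) added for 1 h. Cells fixed with paraformaldehyde, Hoechst-stained, and bound fluorescence quantified by high-content imaging.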

T1 sequence (Q15116 25-288): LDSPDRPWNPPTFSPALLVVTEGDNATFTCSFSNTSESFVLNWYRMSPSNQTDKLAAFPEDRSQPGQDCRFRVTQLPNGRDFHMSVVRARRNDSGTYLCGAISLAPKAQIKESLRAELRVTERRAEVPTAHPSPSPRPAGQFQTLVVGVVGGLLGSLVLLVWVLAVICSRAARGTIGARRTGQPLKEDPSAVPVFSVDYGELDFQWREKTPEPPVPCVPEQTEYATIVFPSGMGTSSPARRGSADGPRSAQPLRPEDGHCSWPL

Compound | IC50
CC(C)C[C@H]1NC(=O)[C@H](CCCN)NC(=O)[C@H](C(C)C)NC(=O)[C@H](Cc2ccc(-c3ccccc3)cc2)NC(=O)[C@H](C(C)C)NC(=O)[C@H](Cc2c[nH]c3ccccc23)NC(=O)[C@H](CC(=O)O)NC(=O)[C@H](Cc2ccc(OCC(=O)O)cc2)NC(=O)[C@H](CCCCNC(=N)N)NC(=O)CSC[C@@H](C(=O)N[C@@H](CC(N)=O)C(=O)NCCOCCOCC(=O)N[C@@H](CCCN)C(=O)NCCCCCCCCCCC(=O)O)NC(=O)[C@H](C(C)O)NC(=O)[C@H](C(C)C)NC(=O)[C@H](CC2CCCCC2)NC(=O)[C@H](CCN)NC1=O (stereo partly drawn) [Compound 3030] ({CH2CO}-[hArg]Y(Carboxymethyl)DWV[Bip]V[Orn][dL][Dab][Cha]V[Thr(3ξ)]CN[AEEA][Orn][Aun]-OH; thioether N-14) | 12.1 nM
CC(C)C[C@H]1NC(=O)[C@H](CCCN)NC(=O)[C@H](C(C)C)NC(=O)[C@H](Cc2ccc(-c3ccccc3)cc2)NC(=O)[C@H](C(C)C)NC(=O)[C@H](Cc2c[nH]c3ccccc23)NC(=O)[C@H](CC(=O)O)NC(=O)[C@H](Cc2ccc(OCC(=O)O)cc2)NC(=O)[C@H](C(C)O)NC(=O)CSC[C@@H](C(=O)N[C@@H](CC(N)=O)C(=O)NCCOCCOCC(=O)N[C@@H](CCCN)C(=O)NCCCCCCCCCCC(=O)O)NC(=O)[C@H](C(C)O)NC(=O)[C@H](C(C)C)NC(=O)[C@H](CC2CCCCC2)NC(=O)[C@H](CCN)NC1=O (stereo partly drawn) [Compound 3031] ({CH2CO}-[Thr(3ξ)]Y(Carboxymethyl)DWV[Bip]V[Orn][dL][Dab][Cha]V[Thr(3ξ)]CN[AEEA][Orn][Aun]-OH; thioether N-14) | 3.4 nM
CC(C)C[C@H]1NC(=O)[C@H](CCCN)NC(=O)[C@H](C(C)C)NC(=O)[C@H](Cc2ccc(-c3ccccc3)cc2)NC(=O)[C@H](C(C)C)NC(=O)[C@H](Cc2c[nH]c3ccccc23)NC(=O)[C@H](CC(=O)O)NC(=O)[C@H](Cc2ccc(OCC(=O)O)cc2)NC(=O)[C@H](CCCCNC(=N)N)NC(=O)CSC[C@@H](C(=O)N[C@@H](C)C(=O)NCCOCCOCC(=O)N[C@@H](CCCN)C(=O)NCCCCCCCCCCC(=O)O)NC(=O)[C@H](C(C)O)NC(=O)[C@H](C(C)C)NC(=O)[C@H](CC2CCCCC2)NC(=O)[C@H](Cc2c[nH]cn2)NC1=O (stereo partly drawn) [Compound 3032] ({CH2CO}-[hArg]Y(Carboxymethyl)DWV[Bip]V[Orn][dL]H[Cha]V[Thr(3ξ)]CA[AEEA][Orn][Aun]-OH; thioether N-14) | 26.5 nM
CC(C)C[C@H]1NC(=O)[C@H](CCCN)NC(=O)[C@H](C(C)C)NC(=O)[C@H](Cc2ccc(-c3ccccc3)cc2)NC(=O)[C@H](C(C)C)NC(=O)[C@H](Cc2c[nH]c3ccccc23)NC(=O)[C@H](CC(=O)O)NC(=O)[C@H](Cc2ccc(OCC(=O)O)cc2)NC(=O)[C@H](C(C)O)NC(=O)CSC[C@@H](C(=O)N[C@@H](C)C(=O)NCCOCCOCC(=O)N[C@@H](CCCN)C(=O)NCCCCCCCCCCC(=O)O)NC(=O)[C@H](C(C)O)NC(=O)[C@H](C(C)C)NC(=O)[C@H](CC2CCCCC2)NC(=O)[C@H](Cc2c[nH]cn2)NC1=O (stereo partly drawn) [Compound 3033] ({CH2CO}-[Thr(3ξ)]Y(Carboxymethyl)DWV[Bip]V[Orn][dL]H[Cha]V[Thr(3ξ)]CA[AEEA][Orn][Aun]-OH; thioether N-14) | 11.3 nM
CC(C)C[C@H]1NC(=O)[C@H](CCCN)NC(=O)[C@H](CCC(=O)O)NC(=O)[C@H](Cc2ccc(-c3ccccc3)cc2)NC(=O)[C@H](C(C)C)NC(=O)[C@H](Cc2c[nH]c3ccccc23)NC(=O)[C@H](CC(=O)O)NC(=O)[C@H](Cc2ccncc2)NC(=O)[C@H](CCCCNC(=N)N)NC(=O)CSC[C@@H](C(=O)N[C@@H](C)C(=O)NCCOCCOCC(=O)N[C@@H](CCCCN)C(=O)NCCCCCCCCCCCCCCC(=O)O)NC(=O)[C@H](CO)NC(=O)[C@H](C(C)C)NC(=O)[C@H](CC2CCCCC2)NC(=O)[C@H](CCN)NC1=O [Compound 3034] ({CH2CO}-[hArg][4Pal]DWV[Bip]E[Orn][dL][Dab][Cha]VSCA[AEEA]K-{NH(CH2)14COOH}; thioether N-14) | 109 nM
CC(C)C[C@H]1NC(=O)[C@H](CCCN)NC(=O)[C@H](C(C)C)NC(=O)[C@H](Cc2ccc(-c3ccccc3)cc2)NC(=O)[C@H](C(C)C)NC(=O)[C@H](Cc2c[nH]c3ccccc23)NC(=O)[C@H](CC(=O)O)NC(=O)[C@H](Cc2ccc(OCC(=O)O)cc2)NC(=O)[C@H](CCCCNC(=N)N)NC(=O)CSC[C@@H](C(=O)NCC(=O)NCCOCCOCC(=O)N[C@@H](CCCN)C(=O)NCCCCCCCCCCC(=O)O)NC(=O)[C@H](CO)NC(=O)[C@H](C(C)C)NC(=O)[C@H](CC2CCCCC2)NC(=O)[C@H](CCN)NC1=O [Compound 3035] ({CH2CO}-[hArg]Y(Carboxymethyl)DWV[Bip]V[Orn][dL][Dab][Cha]VSCG[AEEA][Orn][Aun]-OH; thioether N-14) | 10.7 nM
CC(C)C[C@H]1NC(=O)[C@H](CCCN)NC(=O)[C@H](C(C)C)NC(=O)[C@H](Cc2ccc(-c3ccccc3)cc2)NC(=O)[C@H](C(C)C)NC(=O)[C@H](Cc2c[nH]c3ccccc23)NC(=O)[C@H](CC(=O)O)NC(=O)[C@H](Cc2ccc(OCC(=O)O)cc2)NC(=O)[C@H](CCCCNC(=N)N)NC(=O)CSC[C@@H](C(=O)NCC(=O)NCCOCCOCC(=O)N[C@@H](CCCN)C(=O)NCCCCCCCCCCCC(=O)O)NC(=O)[C@H](CO)NC(=O)[C@H](C(C)C)NC(=O)[C@H](CC2CCCCC2)NC(=O)[C@H](CCN)NC1=O [Compound 3036] ({CH2CO}-[hArg]Y(Carboxymethyl)DWV[Bip]V[Orn][dL][Dab][Cha]VSCG[AEEA][Orn][12Ado]-OH; thioether N-14) | 4.9 nM
CC(C)C[C@H]1NC(=O)[C@H](CCCN)NC(=O)[C@H](C(C)C)NC(=O)[C@H](Cc2ccc(-c3ccccc3)cc2)NC(=O)[C@H](C(C)C)NC(=O)[C@H](Cc2c[nH]c3ccccc23)NC(=O)[C@H](CC(=O)O)NC(=O)[C@H](Cc2ccc(OCC(=O)O)cc2)NC(=O)[C@H](CCCCNC(=N)N)NC(=O)CSC[C@@H](C(=O)NCC(=O)NCCOCCOCC(=O)N[C@@H](CCCN)C(=O)NCCCCCCCCCCCCC(=O)O)NC(=O)[C@H](CO)NC(=O)[C@H](C(C)C)NC(=O)[C@H](CC2CCCCC2)NC(=O)[C@H](CCN)NC1=O [Compound 3037] ({CH2CO}-[hArg]Y(Carboxymethyl)DWV[Bip]V[Orn][dL][Dab][Cha]VSCG[AEEA][Orn]-{NH(CH2)12COOH}; thioether N-14) | 16.5 nM
CC(C)C[C@H]1NC(=O)[C@H](CCCN)NC(=O)[C@H](C(C)C)NC(=O)[C@H](Cc2ccc(-c3ccccc3)cc2)NC(=O)[C@H](C(C)C)NC(=O)[C@H](Cc2c[nH]c3ccccc23)NC(=O)[C@H](CC(=O)O)NC(=O)[C@H](Cc2ccc(C(=O)O)cc2)NC(=O)[C@H](C(C)O)NC(=O)CSC[C@@H](C(=O)N[C@@H](CC(N)=O)C(=O)NCCOCCOCC(=O)N[C@@H](CCCN)C(=O)NCCCCCCCCCCCC(=O)O)NC(=O)[C@H](CO)NC(=O)[C@H](C(C)C)NC(=O)[C@H](CC2CCCCC2)NC(=O)[C@H](CCN)NC1=O (stereo partly drawn) [Compound 3038] ({CH2CO}-[Thr(3ξ)][Phe(4-COOH)]DWV[Bip]V[Orn][dL][Dab][Cha]VSCN[AEEA][Orn][12Ado]-OH; thioether N-14) | 11.3 nM
CCC(C)[C@@H]1NC(=O)[C@H](Cc2ccc(-c3ccccc3)cc2)NC(=O)[C@H](C(C)C)NC(=O)[C@H](Cc2c[nH]c3ccccc23)NC(=O)[C@H](CC(=O)O)NC(=O)[C@H](Cc2ccc(C(=O)O)cc2)NC(=O)[C@H](Cc2ccncc2)NC(=O)CSC[C@@H](C(=O)N[C@@H](CC(N)=O)C(=O)NCCOCCOCC(=O)N[C@@H](CCCN)C(=O)NCCCCCCCCCCC(=O)O)NC(=O)[C@H](CO)NC(=O)[C@H](C(C)C)NC(=O)[C@H](CC2CCCCC2)NC(=O)[C@H](CCN)NC(=O)[C@@H](CC(C)C)NC(=O)[C@H](CCCN)NC1=O (stereo partly drawn) [Compound 3039] ({CH2CO}-[4Pal][Phe(4-COOH)]DWV[Bip][Ile(3ξ)][Orn][dL][Dab][Cha]VSCN[AEEA][Orn][Aun]-OH; thioether N-14) | 10.5 nM
CCC(C)[C@@H]1NC(=O)[C@H](Cc2ccc(-c3ccccc3)cc2)NC(=O)[C@H](C(C)C)NC(=O)[C@H](Cc2c[nH]c3ccccc23)NC(=O)[C@H](CC(=O)O)NC(=O)[C@H](Cc2ccncc2)NC(=O)[C@H](C(C)O)NC(=O)CSC[C@@H](C(=O)N[C@@H](CC(N)=O)C(=O)NCCOCCOCC(=O)N[C@@H](CCCN)C(=O)NCCCCCCCCCCCCC(=O)O)NC(=O)[C@H](CO)NC(=O)[C@H](C(C)C)NC(=O)[C@H](CC2CCCCC2)NC(=O)[C@H](CCN)NC(=O)[C@@H](CC(C)C)NC(=O)[C@H](CCCN)NC1=O (stereo partly drawn) [Compound 3040] ({CH2CO}-[Thr(3ξ)][4Pal]DWV[Bip][Ile(3ξ)][Orn][dL][Dab][Cha]VSCN[AEEA][Orn]-{NH(CH2)12COOH}; thioether N-14) | 15 nM
CC(C)C[C@H]1NC(=O)[C@H](CCCN)NC(=O)[C@H](C(C)C)NC(=O)[C@H](Cc2ccc(-c3ccccc3)cc2)NC(=O)[C@H](C(C)C)NC(=O)[C@H](Cc2c[nH]c3ccccc23)NC(=O)[C@H](CC(=O)O)NC(=O)[C@H](Cc2ccc(OCC(=O)O)cc2)NC(=O)[C@H](C(C)O)NC(=O)CSC[C@@H](C(=O)NCCOCCOCC(=O)N[C@@H](CC(=O)NCCCCCCCCCCCC(=O)O)C(=O)O)NC(=O)[C@H](CO)NC(=O)[C@H](C(C)C)NC(=O)[C@H](CC2CCCCC2)NC(=O)[C@H](CCN)NC1=O (stereo partly drawn) [Compound 3041] ({CH2CO}-[Thr(3ξ)]Y(Carboxymethyl)DWV[Bip]V[Orn][dL][Dab][Cha]VSC[AEEA][βAsp][12Ado]-OH; thioether N-14) | 12.7 nM
CC(C)C[C@H]1NC(=O)[C@H](CCCN)NC(=O)[C@H](C(C)C)NC(=O)[C@H](Cc2ccc(-c3ccccc3)cc2)NC(=O)[C@H](C(C)C)NC(=O)[C@H](Cc2c[nH]c3ccccc23)NC(=O)[C@H](CC(=O)O)NC(=O)[C@H](Cc2ccc(C(=O)O)cc2)NC(=O)[C@H](Cc2ccc(OCC(=O)O)cc2)NC(=O)CSC[C@@H](C(=O)NCCOCCOCC(=O)N[C@@H](CC(=O)NCCCCCCCCCCCC(=O)O)C(=O)O)NC(=O)[C@H](C(C)O)NC(=O)[C@H](C(C)C)NC(=O)[C@H](CC2CCCCC2)NC(=O)[C@H](CCN)NC1=O (stereo partly drawn) [Compound 3042] ({CH2CO}-Y(Carboxymethyl)[Phe(4-COOH)]DWV[Bip]V[Orn][dL][Dab][Cha]V[Thr(3ξ)]C[AEEA][βAsp][12Ado]-OH; thioether N-14) | 11.5 nM
